Literature values as cited in US20260294906A1, “TREATING PSORIASIS USING A SMALL MOLECULE INHIBITOR OF TUMOR NECROSIS FACTOR ALPHA” (SANOFI, priority 2023, published 2026).

Assays:
[1] = tested on: TNFR1; settings: Jurkat cells; sTNFα pre-incubated with the substance, compared with sTNFα alone; cited from earlier work
[2] = tested on: sTNFα; settings: O'Connell et al.; cited from earlier work

Row | Compound | TNFR1 signaling (RIP-1 ubiquitination and NF-κB phosphorylation) [1] | stabilization of the asymmetric sTNFα trimer [2]
1 | Cc1ccc(C)c(Cn2c(C(O)c3ccncc3)nc3ccc(-c4cnn(C)c4)cc32)c1 (stereo not drawn) [UCB-9260, reference compound] | impaired | stabilizes the asymmetric sTNFα trimer
2 | etanercept | impaired | –
